Three molecules from patent publication US9782364B1, “Curcumin-based compositions and methods of use thereof” (priority 2015, dated 2017) can be followed below.

One assay concerns NFkB-p65. Description: Western blot of cytoplasmic and nuclear NFkB-p65 and phospho-serine 276 NFkB-p65 in LPS-induced BV2 microglia. It counts as cell-based. The following applies: BV2 cells, 22.0 μg/ml, 30 min pre-treatment then LPS 30 min; for inhibition of NFkB-p65 nucleotranslocation (cytosolic and nuclear NFkB-p65 levels): FIGS. 3 and 4; for inhibition of NFkB-p65 serine 276 phosphorylation: cytoplasmic and nuclear, FIGS. 5 and 6. The procedure: (§1) Western blot analysis was performed in multiple varying formats before optimization was achieved. The BV2 microglia cell line was cultured in Dulbecco's Modified Eagle's Medium (DMEM)—complete medium. The complete medium consisted of DMEM, 1% Ampicillin, and 10% Fetal Bovine Serum (FBS). BV2 microglia cells, at a cell count of approximately 2×10^6, were seeded in each well (6 wells per plate) with 2.0 ml complete medium and cultured overnight in a ThermaForma HepaFilter Series II Coe Incubator at 37° Celsius. Upon establishing confluence, subconfluent cells were washed out and the wells were prepared with drug pre-treatment after overnight incubation.
(§2) The test drugs (curcuminoids) were procured as follows: curcumin I research standard (03926) (ChromaDex Irvine, Calif. USA) (97.7% purity); curcumin II research standard (04230) (ChromaDex Irvine, Calif. USA) (97.3%); curcumin III research standard (B6938) (Sigma-Aldrich St. Louis, Mo., USA) (97.7% purity); curcumin extract (curcumin I—77.7%, curcumin II—16.9%, curcumin III—0.9%) research standard (03928) (ChromaDex Irvine, Calif. USA) (95.3% purity); and Lipopolysaccharide (LPS) from E. Coli (L2630) (Sigma-Aldrich St. Louis, Mo., USA).
Curcuminoids are not soluble in aqueous medium due to their hydrophobic characteristic. However, curcuminoid extracts are soluble in polar organic solvents, such as DMSO and acetone. In this Example, each curcuminoid preparation was first dissolved in DMSO. DMSO was used in the drug preparation at 0.2%. The drug/DMSO solution was subsequently dissolved in DMEM to achieve a final drug concentration for each curcuminoid preparation tested—22.0 μg/ml curcuminoid. The DMEM/drug solution was used to replace the culture DMEM well medium and incubated for 30 minutes at 37-degrees Celsius in a ThermaForma incubator. At 31 minutes, lipopolysaccharide (LPS at […] final well concentration) induction of the cells was executed, except for the DMSO-only well to stimulate cell response amidst drug pre-treatment and without drug treatment.
The plates were then incubated for another 30 minutes after LPS stimulation. Upon removal from incubation, the cell medium was carefully removed and cells were washed, scraped, and collected with phosphate-buffered saline (PBS). Using a ThermoFisher Scientific NE-PER Nuclear and Cytoplasmic Extraction Kit (obtained from ThermoFisher Scientific Burlington, Ontario Canada), the cells were lysed and the cytoplasmic and nuclear protein fractions were collected and separated with the intention of probing each fraction for subcellular changes in cytoplasmic and nuclear proteins (as described further below).
Total protein concentration for each fraction was determined using a Bio Rad Protein Assay that is based on the Bradford Assay (dye-binding method). The total protein concentration determination was made prior to test sample preparation for gel electrophoresis execution (described below). The protein concentration colorimetric assay kit was purchased from Bio Rad Laboratories Canada Ltd. (Montreal, Quebec Canada). Each test sample was then prepared for loading and subjected to gel electrophoresis (SDS-PAGE) using a BioRad stain free gel system (Catalog No. 161-0181) and subsequently transferred/blotted to a nitrocellulose membrane (ThermoFisher Scientific Product No. 88018), blocked, and prepared for primary antibody treatment for each target.
The targets analyzed in the Western Blot included NFkB-p65 and its nucleocytoplasmic translocation, as well as kinases (including MSK1) and their covalent modifications upstream of and involved in the regulation of NFkB. Antibodies against NFkB-p65 (Ab16502) were procured from Abcam Inc. (Toronto, Ontario, Canada) as a primary antibody to probe for total NFkB-p65 levels in both nuclear and cytoplasmic fractions. […]
On the technique in general: A western blot detects proteins with antibodies after separation by electrophoresis.

The target of another assay is T1, MSK1 (Mus musculus, UniProt Q8C050).
T1 construct: the cells were lysed and the cytoplasmic and nuclear protein fractions were collected; endogenous in cells; host or cells: BV2 microglia, LPS-induced
Description: Western blot of cytoplasmic and nuclear MSK1 and phospho-serine 376 MSK1 in LPS-induced BV2 microglia. Type of assay: cell-based. The conditions noted are these: BV2 cells, 22.0 μg/ml, 30 min pre-treatment then LPS 30 min. The procedure:
as §1, §2
Curcuminoids are not soluble in aqueous medium due to their hydrophobic characteristic. However, curcuminoid extracts are soluble in polar organic solvents, such as DMSO and acetone. In this Example, each curcuminoid preparation was first dissolved in DMSO. DMSO was used in the drug preparation at 0.2%. The drug/DMSO solution was subsequently dissolved in DMEM to achieve a final drug concentration for each curcuminoid preparation tested—22.0 μg/ml curcuminoid. […]
Total protein concentration for each fraction was determined using a Bio Rad Protein Assay that is based on the Bradford Assay (dye-binding method). […]
The targets analyzed in the Western Blot included NFkB-p65 and its nucleocytoplasmic translocation, as well as kinases (including MSK1) and their covalent modifications upstream of and involved in the regulation of NFkB. […]

T1 sequence (Q8C050 whole entry): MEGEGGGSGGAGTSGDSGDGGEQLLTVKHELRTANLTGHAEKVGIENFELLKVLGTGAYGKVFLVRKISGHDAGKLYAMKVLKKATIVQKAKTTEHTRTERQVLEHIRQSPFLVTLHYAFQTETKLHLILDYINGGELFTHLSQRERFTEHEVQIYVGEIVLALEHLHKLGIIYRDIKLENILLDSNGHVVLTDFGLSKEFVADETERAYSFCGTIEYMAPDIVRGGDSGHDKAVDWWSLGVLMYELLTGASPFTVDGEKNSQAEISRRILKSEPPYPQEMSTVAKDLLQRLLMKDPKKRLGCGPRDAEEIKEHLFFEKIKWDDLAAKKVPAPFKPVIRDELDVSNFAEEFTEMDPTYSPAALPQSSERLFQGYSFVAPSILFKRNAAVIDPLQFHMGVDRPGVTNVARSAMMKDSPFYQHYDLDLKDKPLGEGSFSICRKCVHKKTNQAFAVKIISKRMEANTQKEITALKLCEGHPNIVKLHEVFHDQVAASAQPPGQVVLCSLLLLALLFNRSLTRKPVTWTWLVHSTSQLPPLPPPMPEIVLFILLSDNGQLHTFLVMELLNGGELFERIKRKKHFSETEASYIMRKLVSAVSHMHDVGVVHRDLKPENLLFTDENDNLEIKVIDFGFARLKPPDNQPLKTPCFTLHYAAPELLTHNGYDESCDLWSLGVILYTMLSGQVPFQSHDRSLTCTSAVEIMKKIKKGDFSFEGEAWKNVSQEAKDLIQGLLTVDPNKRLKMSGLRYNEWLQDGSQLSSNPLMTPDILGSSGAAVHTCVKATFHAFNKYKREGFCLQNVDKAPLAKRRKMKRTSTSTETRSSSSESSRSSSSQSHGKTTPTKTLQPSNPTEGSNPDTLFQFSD

For `COc1cc(/C=C/C(=O)/C=C(O)/C=C/c2ccc(O)c(OC)c2)ccc1O` [curcumin I, (1E,6E)-1,7-Bis(4-hydroxy-3-methoxyphenyl)-1,6-heptadiene-3,5-dione], in the assay on NFkB-p65, the “inhibition of NFkB-p65 nucleotranslocation (cytosolic and nuclear NFkB-p65 levels)” value is reported as “not significantly inhibited”; the “inhibition of NFkB-p65 serine 276 phosphorylation” value is given as “moderately inhibit”.

`COc1cc(/C=C/C(=O)CC(=O)/C=C/c2ccc(O)cc2)ccc1O` [curcumin II, (1E,6E)-1-(4-Hydroxy-3-methoxyphenyl)-7-(4-hydroxyphenyl)hepta-1,6-diene-3,5-dione]: in the assay on NFkB-p65, the “inhibition of NFkB-p65 nucleotranslocation (cytosolic and nuclear NFkB-p65 levels)” value is listed as “not significantly inhibited”; the “inhibition of NFkB-p65 serine 276 phosphorylation” value is recorded as “moderately inhibit”. Besides, at MSK1 (cytoplasmic and nuclear, FIGS. 9 and 10), the “inhibition of MSK1 serine 376 phosphorylation” value was “inhibit”.

As for `O=C(/C=C/c1ccc(O)cc1)CC(=O)/C=C/c1ccc(O)cc1` [curcumin III, (1E,6E)-1,7-bis(4-hydroxyphenyl)hepta-1,6-diene-3,5-dione], in the assay on NFkB-p65, the “inhibition of NFkB-p65 nucleotranslocation (cytosolic and nuclear NFkB-p65 levels)” value was “not significantly inhibited”; the “inhibition of NFkB-p65 serine 276 phosphorylation” value is recorded as “moderately inhibit”. Further, the “inhibition of MSK1 protein levels in the cytoplasm” value on MSK1 (FIG. 7) was “significantly inhibited and downregulated”. The “inhibition of MSK1 protein levels in the nucleus” value on MSK1 (FIG. 8) was “significantly inhibited and downregulated”.
